{"source": "patent US11647737B2", "about": "“Genetically modified rabbit expressing an exogenous protein in milk” (APPLIED STEMCELL, INC., priority 2016, dated 2023)", "key": {"[1]": {"test_system": "beta-casein locus in rabbit embryos", "assay": "td-Tomato knock-in efficiency at the beta-casein locus in rabbit embryos", "type": "cell-based", "conditions": "RS-1 7.5 μM; control 8.3%; P<0.05", "experimental": "A mixture containing 100 ng/μl donor DNA, 100 ng/μl Cas9 mRNA and 6 ng/μl sgRNA were used for cytoplasm microinjection. Embryos were subsequently cultured to blastocyst stages, genomic DNA extracted, and subjected to PCR using primer sets described in FIG. 4. Embryos that are positive containing the desired band size for both primer sets LF1/LR1 and RF1/RR1 are considered putative knock-in."}, "[2]": {"test_system": "ROSA26 like locus (RLL) in rabbit embryos", "conditions": "for knock-in rate: 20 h, control 4.8%", "quoted_text": "We first tested the effects of SCR7 and RS-1 on Cas9 mediated HDR at a ROSA26 like locus (RLL) in the rabbit genome (FIG. 6). Donor template DNAs were co-microinjected with Cas9 mRNA and sgRNA for RLL locus. After injection, the embryos were treated for 20 h in a serial concentration of SCR7: 0 μM (control), 20 μM, 40 μM, and 80 μM, or in RS-1 at 0 μM (control), 7.5 μM, and 15 μM."}, "[3]": {"test_system": "β-casein (rbCSN2)", "assay": "In vitro validation of sgRNAs in microinjected rabbit embryos (PCR and sequencing of blastocysts), β-casein", "type": "cell-based", "conditions": "100 ng/μl Cas9 mRNA and 6 ng/μl sgRNA", "experimental": "All animal maintenance, care and use procedures were reviewed and approved by the University Committee on the Use and Care of Animals (UCUCA) of the University of Michigan. Embryos were harvested from superovulated embryo donor female rabbits as previously described. Microinjection was performed on embryos 19-21 h post insemination using a micromanipulator under the inverted microscope equipped with a differential interference contrast (DIC) device. A mixture containing 100 ng/μl Cas9 mRNA and 6 ng/μl sgRNA were used for cytoplasmic microinjection. The injected embryos were washed and cultured in vitro for 3-4 days until they reached blastocyst stage.\nBlastocyst stage embryos were lysed individually and genomic DNA extracted. To get better PCR reaction, the whole genome was replicated using a REPLI-g® Mini Kit (Qiagen, Germantown, Md.) following the manufacturer's protocol with slight modification. PCR products using primer set LF1/RR1 were purified and sequenced for detection of indel mutations proximate to the sgRNA target sequence (FIG. 4). On the chromatographic curves, peaks on peaks approximate the targeting site indicate an indel event. Mutation Surveyor (Softgenetics, State College, Pa.) was used to analyze sequencing results.\nIn total, we performed microinjection to 102 pronuclear stage embryos with sgRNA#3 targeting β-casein (rbCSN2) (see Table 1). […]"}}, "note": "Where two headings read alike, the source gives them in different places.", "data": [{"molecule": "O=C(Nc1ccc(Br)cc1)c1ccc(Br)c(S(=O)(=O)NCc2ccccc2)c1", "note": "[RS-1]", "values": [{"measurement": "% KI (knock-in rate)", "setting": "[1]", "result": 28.9, "unit": "%"}, {"measurement": "knock-in rate", "setting": "[2]; RS-1 7.5 μM", "result": 26.1, "unit": "%"}, {"measurement": "knock-in rate", "setting": "[2]; RS-1 15 μM", "result": 5.4, "unit": "%"}]}, {"molecule": "O=c1[nH]c(=S)[nH]c(N=Cc2ccccc2)c1N=Cc1ccccc1", "note": "[SCR7]", "values": [{"measurement": "overall knock-in efficiency", "setting": "[2]; embryos treated 20 h with SCR7 20 μM, 40 μM, 80 μM, control 7.1%", "result": "7.7-9.4%"}, {"measurement": "effect on overall knock-in efficiency", "setting": "[2]; embryos treated 20 h with SCR7 20-80 μM vs control", "result": "no significant effects"}]}, {"molecule": "sgRNA#3: sgRNA targeting rabbit β-Casein intron 1, GGATATCATGTTAGAGTGCCTGG (SEQ ID NO: 1) (listed as DNA, chemistry not given here; the letters are possibly those of the target site)", "values": [{"measurement": "Bi-allelic mutations (%)", "setting": "[3]", "result": 36, "unit": "%"}, {"measurement": "blastocysts with insertions or deletions at or proximate the targeted cleavage site (#mutated, %)", "setting": "[3]; 56 blastocysts sequenced", "result": 63, "unit": "%"}]}]}
